Among the data in patent US11976061B2, “Preparation of benzimidazolone derivatives as novel diacylglyceride O-acyltransferase 2 inhibitors” (Merck Sharp & Dohme LLC, priority 2020, dated 2024) are IC50 values, retold here.

The target of the test is T1, human DGAT2 (hDGAT2) (Homo sapiens, UniProt Q96PD7).
T1 construct: made in house; host or cells: Sf-9 insect cells (baculovirus), membrane fraction
T1 sequence (Q96PD7 1-388): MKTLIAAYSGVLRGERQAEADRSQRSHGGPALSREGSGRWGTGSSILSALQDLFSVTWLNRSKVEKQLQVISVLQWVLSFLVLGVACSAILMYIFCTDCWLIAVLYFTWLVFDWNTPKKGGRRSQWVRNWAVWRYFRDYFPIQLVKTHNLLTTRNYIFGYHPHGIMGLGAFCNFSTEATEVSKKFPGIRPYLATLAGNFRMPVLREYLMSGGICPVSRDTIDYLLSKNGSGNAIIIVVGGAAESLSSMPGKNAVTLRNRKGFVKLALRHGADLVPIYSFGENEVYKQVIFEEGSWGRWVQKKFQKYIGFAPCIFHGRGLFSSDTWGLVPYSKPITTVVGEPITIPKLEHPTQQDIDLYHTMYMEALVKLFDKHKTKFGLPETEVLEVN
Kind of test: DGAT2 Enzymatic Activity Assay. The note with it: membrane prep of Sf-9 cells expressing hDGAT2, 25 μM diolein, 5 μM 13C oleoyl-CoA, 13C18-triolein by LC/MS/MS. It counts as biochemical. How it is done:
Insect Cell Expression and Membrane Preparation
Sf-9 insect cells were maintained in Grace's insect cell culture medium with 10% heated-inactivated fetal bovine serum, 1% Pluronic F-68 and 0.14 μg/ml Kanamycine sulfate at 27° C. in a shaker incubator. After infection with untagged baculovirus expressing human DGAT2 (hDGAT2) at multiplicity of infection (MOI) 3 for 48 hours, cells were harvested. Cell pellets were suspended in buffer containing 10 mM Tris-HCl pH 7.5, 1 mM EDTA, 250 mM sucrose and Complete Protease Inhibitor Cocktail (Sigma Aldrich), and sonicated on ice. Cell debris were removed by centrifugation at 2000×g for 15 minutes. Membrane fractions were isolated by ultracentrifugation (100,000×g), resuspended in the same buffer, and frozen (−80° C.) for later use. The protein concentration was determined with the Pierce™ BCA Protein Assay Kit (Thermo Fisher Scientific). Expression of protein levels was analyzed by immunoblotting with rabbit anti-DGAT2 antibody (Abcam, ab102831) and donkey anti-rabbit IgG H&L Alexa Fluor® 647 (Abcam, ab150075) followed by detection using Typhoon FLA9000 (GE Healthcare).
LC/MS/MS analyses were performed using Thermal Fisher's LX4-TSQ Vantage system. This system consists of an Agilent binary high-performance liquid chromatography (HPLC) pump and a TSQ Vantage triple quadrupole MS/MS instrument. For each sample, 2 μL samples from the top organic layer of in-plate liquid-liquid extraction were injected onto a Thermo Betabasic C4 column (2.1 mm×20 mm, 5 μm particle size). The samples were then eluted using the following conditions; mobile phase: Isopropanol:acetonitrile/10 mM ammonium formate=50/35/15 (v/v/v), flow rate: 0.8 mL/min, temperature: 25° C. Data was acquired in positive mode using a heated electrospray ionization (HESI) interface. The operational parameters for the TSQ Vantage MS/MS instrument were a spray voltage of 3000 V, capillary temperature of 280° C., vaporizer temperature 400° C., sheath gas 45 arbitrary unit, Aux gas 10 arbitrary units, S-lens 165 and collision gas 1.0 mTorr. […] (SRM) chromatograms of ^13C18-triolein (Q1: 920.8>Q3: 621.3) and internal standard ^13C21-triolein (Q1: 923.8>Q3: 617.3) were collected for 33 sec. The peak area was integrated by Xcalibur Quan software. The ratio between the ^13C18triolein generated in the reaction and spiked in internal standard ^13C21-triolein was used to generate percentage inhibition and IC50 values. Compound percentage inhibition was calculated by the following formula: Inhibition %=1−[(compound response−low control)/(high control−low control)]×100%. Potent compounds were titrated and IC50 were calculated by 4 parameter sigmoidal curve fitting formula.
DGAT2 Enzymatic Activity Assay
DGAT2 activity was determined by measuring the amount of enzymatic product ^13C18-triolein (^13C-1,2,3-Tri(cis-9-octadecenoyl)glycerol) using the membrane prep mentioned above. The assay was carried out in ABgene 384-well assay plates in a final volume of 25 μL at rt. The assay mixture contained the following: assay buffer (100 mM Tris·Cl, pH 7.0, 20 mM MgCl2, 5% ethanol), 25 μM of diolein, 5 μM of ^13C oleoyl-CoA and 8 ng/μL of DGAT2 membrane.

Each structure is given as a SMILES string. Where two headings read alike, the source gives them in different places. A value given as a limit tells only on which side of the number the result lay.

Take `CC(C)n1c(=O)n(-c2cccc(F)c2)c2ccc(C(=O)NC3(C)CCS(=O)(=O)CC3)cc21` [Example 50, 1-(3-fluorophenyl)-3-isopropyl-N-(4-methyl-1,1-dioxidotetrahydro-2H-thiopyran-4-yl)-2-oxo-2,3-dihydro-1H-benzo[d]imidazole-5-carboxamide]: for the setting “read-out: DGAT2 IC50”, the 50% inhibitory concentration (IC50) (as a rule, the concentration needed to halve the response being measured) is more than 9990 nM.

As to `CC(C)Oc1cc(-n2c(=O)n(C(C)C)c3cc(C(=O)NC4(C)CCS(=O)(=O)CC4)ccc32)c(F)cn1` [Example 51, 1-(5-fluoro-2-isopropoxypyridin-4-yl)-3-isopropyl-N-(4-methyl-1,1-dioxidotetrahydro-2H-thiopyran-4-yl)-2-oxo-2,3-dihydro-1H-benzo[d]imidazole-5-carboxamide], the half-inhibitory concentration (IC50) (read-out: DGAT2 IC50) is 251 nM.

Consider `CC1(NC(=O)c2ccc3c(c2)n(CCC(F)(F)F)c(=O)n3-c2cccc(OC(F)F)c2)CCS(=O)(=O)CC1` [Example 42, 1-(3-(Difluoromethoxy)phenyl)-N-(4-methyl-1,1-dioxidotetrahydro-2H-thiopyran-4-yl)-2-oxo-3-(3,3,3-trifluoropropyl)-2,3-dihydro-1H-benzo[d]imidazole-5-carboxamide], for which the IC50 (read-out: DGAT2 IC50) came to 405 nM.

As for `CC(n1c(=O)n(-c2cccc(OC(F)(F)C(F)F)c2)c2ccc(C(=O)NC3(C)CS(=O)(=O)C3)cc21)C(C)(C)O` (single isomer, unassigned) [Example 76b, 3-(3-hydroxy-3-methylbutan-2-yl)-N-(3-methyl-1,1-dioxidothietan-3-yl)-2-oxo-1-(3-(1,1,2,2-tetrafluoroethoxy)phenyl)-2,3-dihydro-1H-benzo[d]imidazole-5-carboxamide], under “read-out: DGAT2 IC50”, the IC50 came to 7.9 nM.

With `CC(C(F)F)n1c(=O)n(-c2cccc(OC(F)F)c2)c2ccc(C(=O)NC3(C)CCS(=O)(=O)CC3)cc21` (single isomer, unassigned) [Example 45a, 1-(3-(Difluoromethoxy)phenyl)-3-(1,1-difluoropropan-2-yl)-N-(4-methyl-1,1-dioxidotetrahydro-2H-thiopyran-4-yl)-2-oxo-2,3-dihydro-1H-benzo[d]imidazole-5-carboxamide], the IC50 (read-out: DGAT2 IC50) worked out at 12 nM.

Turning to `CC(C)n1c(=O)n(-c2cccc(OC(F)F)c2)c2ccc(C(=O)N[C@H]3CCOC[C@@H]3O)cc21` [Example 29, 1-[3-(difluoromethoxy)phenyl]-N-[(3R,4S)-3-hydroxytetrahydropyran-4-yl]-3-isopropyl-2-oxo-benzimidazole-5-carboxamide], the half-maximal inhibitory concentration (IC50) (read-out: DGAT2 IC50) was found to be 1260 nM.

As for `CC(C)n1c(=O)n(-c2cccc(OC(F)F)c2)c2cnc(C(=O)NC3(C)CCS(=O)(=O)CC3)cc21` [Example 106, 3-(3-(difluoromethoxy)phenyl)-1-isopropyl-N-(4-methyl-1,1-dioxidotetrahydro-2H-thiopyran-4-yl)-2-oxo-2,3-dihydro-1H-imidazo[4,5-c]pyridine-6-carboxamide], the IC50 (read-out: Human DGAT2 IC50) turned out to be 69.8 nM.

For the molecule `CC1(NC(=O)c2ccc3c(c2)n(C2CCOCC2)c(=O)n3-c2cccc(OC(F)F)c2)CS(=O)(=O)C1` [Example 36, 1-(3-(difluoromethoxy)phenyl)-N-(3-methyl-1,1-dioxidothietan-3-yl)-2-oxo-3-(tetrahydro-2H-pyran-4-yl)-2,3-dihydro-1H-benzo[d]imidazole-5-carboxamide], under “read-out: DGAT2 IC50”, the concentration for half-maximal inhibition (IC50) was 19.4 nM.

`CC(C)n1c(=O)n(-c2cccc(OC(F)(F)C(F)F)c2)c2ncc(C(=O)NC3(C)CS(=O)(=O)C3)cc21` [Example 93, 1-isopropyl-N-(3-methyl-1,1-dioxo-thietan-3-yl)-2-oxo-3-[3-(1,1,2,2-tetrafluoroethoxy)phenyl]imidazo[4,5-b]pyridine-6-carboxamide]: where the note is “read-out: DGAT2 IC50”, the half-inhibitory concentration (IC50) stood at 24 nM.

For the molecule `CC(C)n1c(=O)n(-c2cccc(OC(F)F)c2)c2ccc(C(=O)NC3(C)CCS(=O)(=O)CC3)cc21` [Example 25, 1-(3-(difluoromethoxy)phenyl)-3-isopropyl-N-(4-methyl-1,1-dioxidotetrahydro-2H-thiopyran-4-yl)-2-oxo-2,3-dihydro-1H-benzo[d]imidazole-5-carboxamide], where the note is “read-out: Human DGAT2 IC50”, the 50% inhibitory concentration (IC50) turned out to be 23 nM.

Consider `CC(n1c(=O)n(-c2cc(OCC(F)F)ccc2F)c2cc(F)c(C(=O)NC3(C)CCS(=O)(=O)CC3)cc21)C(C)(C)O` (single isomer, unassigned) [Example 75b, 1-(5-(2,2-difluoroethoxy)-2-fluorophenyl)-6-fluoro-3-(3-hydroxy-3-methylbutan-2-yl)-N-(4-methyl-1,1-dioxidotetrahydro-2H-thiopyran-4-yl)-2-oxo-2,3-dihydro-1H-benzo[d]imidazole-5-carboxamide], for which the IC50 (read-out: DGAT2 IC50) was 2.4 nM.

Regarding `CC(C)n1c(=O)n(-c2cc(OC(F)F)ncc2F)c2ccc(C(=O)NC3(C)CCS(=O)(=O)CC3)cc21` [Example 5, 1-(2-(Difluoromethoxy)-5-fluoropyridin-4-yl)-3-isopropyl-N-(4-methyl-1,1-dioxidotetrahydro-2H-thiopyran-4-yl)-2-oxo-2,3-dihydro-1H-benzo[d]imidazole-5-carboxamide], the IC50 (read-out: Human DGAT2 IC50) came out at 34 nM.

In the case of `CC(C)n1c(=O)n(-c2cccc(OC(F)F)c2)c2ccc(C(=O)N[C@H]3CCC[C@@H]3O)cc21` [Example 28, 1-[3-(difluoromethoxy)phenyl]-N-[(1S,2S)-2-hydroxycyclopentyl]-3-isopropyl-2-oxo-benzimidazole-5-carboxamide], where the note is “read-out: DGAT2 IC50”, the 50% inhibitory concentration (IC50) came out at 779 nM.

In the case of `CC(n1c(=O)n(-c2cc(OC(F)(F)F)ccc2F)c2cc(F)c(C(=O)NC3(C)CCS(=O)(=O)CC3)cc21)C(C)(C)O` (single isomer, unassigned) [Example 70b, 6-fluoro-1-(2-fluoro-5-(trifluoromethoxy)phenyl)-3-(3-hydroxy-3-methylbutan-2-yl)-N-(4-methyl-1,1-dioxidotetrahydro-2H-thiopyran-4-yl)-2-oxo-2,3-dihydro-1H-benzo[d]imidazole-5-carboxamide], the IC50 (read-out: DGAT2 IC50) was found to be 30.4 nM.

As for `CCOc1cc(-n2c(=O)n(C(C)C(C)(C)O)c3cc(C(=O)NC4(C)CCS(=O)(=O)CC4)ccc32)c(F)cn1` (single isomer, unassigned) [Example 69b, 1-(2-ethoxy-5-fluoropyridin-4-yl)-3-(3-hydroxy-3-methylbutan-2-yl)-N-(4-methyl-1,1-dioxidotetrahydro-2H-thiopyran-4-yl)-2-oxo-2,3-dihydro-1H-benzo[d]imidazole-5-carboxamide], the half-maximal inhibitory concentration (IC50) (read-out: DGAT2 IC50) worked out at 3.9 nM.

For `Cc1nnc(NC(=O)c2ccc3c(c2)n(C(C)C)c(=O)n3-c2cccc(OC(F)F)c2)s1` [Example 61, 1-(3-(difluoromethoxy)phenyl)-3-isopropyl-N-(5-methyl-1,3,4-thiadiazol-2-yl)-2-oxo-2,3-dihydro-1H-benzo[d]imidazole-5-carboxamide], where the note is “read-out: DGAT2 IC50”, the IC50 is more than 9990 nM.

Consider `CC(C)n1c(=O)n(-c2cc(OC(F)F)ncc2F)c2ccc(C(=O)NC3(C)CS(=O)(=O)C3)cc21` [Example 20, 1-(2-(difluoromethoxy)-5-fluoropyridin-4-yl)-3-isopropyl-N-(3-methyl-1,1-dioxidothietan-3-yl)-2-oxo-2,3-dihydro-1H-benzo[d]imidazole-5-carboxamide], for which, where the note is “read-out: Human DGAT2 IC50”, the IC50 turned out to be 76 nM.
